In patent US20060183733A1, “Treating microvasculature diseases with acetyl cholinesterase inhibitors” (priority 2005, published 2006):
“And” between values parts separate entries of the source, which are not always exact repeats. Identical values can stand only once. “Also recorded” adds a separate entry of the source.

What was measured:
[1] = test system: patients with rheumatologic conditions (RA, SLE, PMR, polymyositis); assay: Patient case histories: rheumatological conditions; assay type: in vivo, human
Excerpt: The use of an acetylcholinesterase inhibitor raises level of acetylcholine by inhibition of cholinesterase. The Increased levels of acetylcholine stimulate neuronal receptors of the parasympathetic nervous system and non-neuronal receptors associated with the intima of blood vessels and leukocytes. This dual effect of improving flow within the microvascular circulation and stabilization of leukocytes and their adhesion to the wall of blood vessel produces the anti-inflammatory effect that is observed with the use of an acetylcholinesterase inhibitor for treatment of rheumatologic diseases.

[2] = test system: patients with lymphedema; assay type: in vivo, human; conditions: donepizil 5 mg orally daily
Excerpt: The improvement in perfusion within the small arterioles decreases the hydrostatic pressure at the end arterioles and therefore reduces interstitial fluid accumulation that impedes the return of lymph fluid within the lymphatic vessels. The physics model for this phenomenon makes use of Bernouli's equation and its relationship to a Venturi tube. Hydrostatic pressure proximal to a relative stricture creates a pressure gradient that leads to increased transudation that overwhelms the capacity of the lymphatic system to manage. The vasodilatory effects of the parasympathetic nervous system upon small arterioles produces improved perfusion and lessens the accumulation of lymphedema. A common example of lymphedema occurs following joint replacement surgery with swelling that persists for three to six months and sometimes permanently. Lymphedema following joint replacement surgery slows recovery and creates pain while predisposing to deep vein thrombosis and infection.

[3] = test system: patients with Parkinson's disease; conditions: donepizil decreased from 10 mg to 5 mg daily
[4] = test system: patients with chronic renal insufficiency; assay: Patient case histories: chronic renal insufficiency (serum creatinine, BUN); assay type: in vivo, human
Excerpt: To postpone or avoid the sequelae of chronic renal insufficiency, treatment with acetylcholinesterase inhibitors increase the concentration of acetycholine available to promote blood flow to the renal cortex preventing loss of nephrons and allowing existing renal parenchyma to provide the vital function of the kidney. Just as parasympathetic outflow provide homeostatic neural input to the elimination of function of the intestine, the same parasympathetic innervation provides vasodilatation of the small arterioles supplying the cortex of the kidneys allowing for optimal functioning.

[5] = test system: patients with diabetic polyneuropathy; assay type: in vivo, human; conditions: drug stopped after initial improvement
Excerpt: The symptoms of motor and sensory loss of diabetic polyneuropathy are ameliorated by acetylcholinesterase inhibitions by increasing concentration of acetylcholine, the principle neurotransmitter of the parasympathetic nervous system. By augmenting the trophic input of nerves of parasympathic nervous system; pain and dyserethesia are diminished and weakness/atrophy of muscles are diminished. The clinical observation in non-Alzheimer's patients is an improvement in motor and sensory function following treatment with effective doses of an acetylcholinesterase inhibitor. Improved blood flow within the microvascular circulation supplying the vasovasorum of the nerves produces the beneficial effect. By restoring blood flow to the vasovasorum of the nerves ischemic pain is relieved and normal function of the nerve is allowed to occur. The process of vasodilatation of the microvascular circulation is mediated through both neuronal and non-neuronal acetylcholine receptors stimulation by acetylcholine. Enhancement in acetylcholine levels is effected through treatment with acetylcholinesterase inhibitors.
The physiologic shift favoring vasoconstriction that is associated with diabetes is reversed following administration of an acetylcholinesterase inhibitor allowing perfusion of the microvasculature, restoring blood flow to ischemic motor and sensory nerves damaged by the effects of diabetes.

[6] = test system: patients with urinary retention; assay: Patient case histories: urinary retention (voiding trials, post void residuals)
[7] = test system: patients with myofascial pain / fibromyalgia; assay: Patient case histories: fibromyalgia / myofascial pain syndrome; assay type: in vivo, human; conditions: donepizil 5 mg daily
Excerpt: The present invention provides a method for treating fibromyalgia and myofascial pain syndrome by increasing tissue levels of acetylcholine. Acetylcholine is the neurotransmitter of the parasympathic nervous system. The inventive method increases the relative amount of parasympathetic transmission and thereby facilitates resolution of the pain areas and diminishes the need for narcotics and polypharmacy. The reduction in the use of narcotics, NSAIDs, and tricyclic antidepressants and other medications used for pain having their deleterious side effects is a major benefit. By administration of acetyl cholinesterase inhibitor, the relative concentrations of acetylcholine are increased and available to propagate the impulses of the parasympathic nervous systems and within the non-neuronal acetylcholine receptors diminishing pain and spasms. […] The influence of non-neuronal acetylcholine receptors affected by enhanced levels of acetylcholine produces a reduction in pro-inflammatory mediators and increased blood flow to the nerve fibers involved in pain transmission. The net effect is a reduction in inflammation and improved blood flow to the vasovasorum of the affected nerves reducing the painful sensations.

[8] = test system: patients with peripheral vascular disease and diabetes mellitus; assay: Patient case histories: microvascular disease / vascular insufficiency; assay type: in vivo, human; conditions: for side effects: donepizil 5-10 mg daily
Excerpt: In summary, vascular insufficiency from diabetes is associated with compromise of the microvascular circulation. Treatment with an effective dose of an acetylcholinesterase inhibitor raises the relative concentration of acetylcholine promoting vasodilitation of the microcirculation (end arterioles) through stimulation of neuronal and non-neuronal acetylcholine receptors in the intima of the blood vessels. The beneficial effects of promoting vasodilitation and enhanced tissue perfusion correcting the dystrophic changes and alleviating ischemic pain and ulcers is readily apparent in this series of patients.
The present invention provides a method for the medical management of peripheral vascular disease. The management of peripheral vascular disease with acetylcholinesterase inhibitor addresses the central dilemma in vascular perfusion of the lower extremities. By increasing the relative concentration of acetylcholine, the parasympthetic nervous system is enhanced, improving blood flow at the tissue level by relaxation of the small end arterioles and improving perfusion therefore decreasing vascular edema, enhancing resolution of trohpic ulcers and alleviating rest pain and claudication complaints. The parasympathetic nervous system controls vascular beds in the small arterioles and by increasing the available acetylcholine, dilatation occurs and blood flow improves. By treatment with acetylcholinesterase inhibitors the end results in improved vascular blood supply, decreased congestion at the small arterioles level and improved blood supply. This is particularly necessary in diabetic patients. The presence of non-neuronal acetylcholine receptors with the intima of blood vessels at the microvascular level represents a second physiologic mechanism whereby dilatation of small blood vessels is facilitated by the use of an acetylcholinesterase inhibitor. This latter mechanism owing to the sensitive nature of the cholinesterases associated with the non neuronal acetylcholine system provides sustained cholinergic activity impacting the microvascular circulation and improving perfusion at the critical end arteriole-capillary-venule level.

In the case of `COc1cc2c(cc1OC)C(=O)C(CC1CCN(Cc3ccccc3)CC1)C2` (stereo not shown) [donepizil, 1-benzyl-4->(5,6-dimethoxy-1-indanon)-2-yl methylpiperidine], the “clinical outcome (movement, pain, sleep, edema)” value ([1]; donepizil 5 mg orally daily) was “return of movement in their feet bilaterally; also recorded: improved sleep pattern and decreased pain; also recorded: edema previously noted in their feet bilaterally resolved; also recorded: became ambulatory; also recorded: improvement in their pain complaints and decreased swelling in their ankles bilaterally”, the “erythrocyte sedimentation rate (ESR), follow up” value ([1]; donepizil 5 mg orally daily, Polymyalgia Rheumatica) was “in the normal range” and the “clinical outcome (strength, swelling, vision)” value ([1]; donepizil 10 mg daily, Systemic Lupus Erythematosis) was “improved strength in their arms; also recorded: resolved as well as dysesthesias; also recorded: improved but not sufficient to allow for ambulation; also recorded: no return of vision; also recorded: return of movement in their feet bilaterally with decreased lower extremity swelling”. The post void residuals ([1]; donepizil 10 mg, SLE patient with urinary retention) was “less than 100 cc”, the side effects ([1]; donepizil 5-10 mg daily) was “no symptoms of diarrhea or nausea; also recorded: without incident, adverse side effects or deterioration in their condition; also recorded: no symptoms of diarrhea; also recorded: no untoward side effects” and the side effects [2] was “suffered symptoms of diarrhea or nausea”. For the same compound, the “course after dose reduction” value [3] was “notable deterioration in their motor function and a return of Parkinsonian symptoms”, the serum creatinine ([4]; donepizil 5 mg daily one month then 10 mg daily one month, before treatment 1.8) was 0.8 and the serum creatinine ([4]; donepizil 5 mg one week then 10 mg daily, two weeks of treatment, 5.5 on admission, on hemodialysis (Parkinson's patient)) was 4.2. The side effects ([4]; donepizil 5 mg orally daily) was “no untoward side effects; also recorded: no evidence of metabolic acidosis or hyperkalemia; also recorded: no adverse side effects”, the serum creatinine ([4]; donepizil 5 mg orally daily one month after switch from galantamine, 1.8 before any treatment) was 1.0 and the “BUN (blood urea nitrogen)” value ([4]; donepizil 5 mg orally daily one month after switch from galantamine, 32 before any treatment) was 14. The serum creatinine ([4]; donepizil 5 mg orally daily, 4 weeks/one month, before treatment 1.7, 1.8, 1.4, 1.6, 1.7) was 1.0 and 1.4 and 1.1 and 1.6 and 0.9, the serum creatinine ([4]; donepizil 5 mg orally daily, about 6 weeks, before treatment b104 1.4, b106 1.8) was 1.0 and 1.1 and the “BUN (blood urea nitrogen)” value ([4]; donepizil 5 mg orally daily, about 6 weeks, before treatment b104 37, b106 30) was 21 and 19. For the same compound, the serum creatinine ([4]; donepizil 5 mg orally daily, three weeks, before treatment 2.8, on lisinopril) was 1.4, the “BUN (blood urea nitrogen)” value ([4]; donepizil 5 mg orally daily, three weeks, before treatment 39) was 26 and the serum creatinine ([4]; donepizil 5 mg orally daily, two to three months, before treatment 1.7, 1.8, 1.7) was 1.1 and 0.9 and 1.2. For the same compound, the “BUN (blood urea nitrogen)” value ([4]; donepizil 5 mg orally daily, two to three months, before treatment b96 48, b110 35) was 20 and 19, the “BUN (blood urea nitrogen)” value ([4]; donepizil 5 mg orally daily, two weeks, before treatment 30) was 22 and the serum creatinine ([4]; donepizil 5 mg orally daily, up to two weeks, before treatment b100 1.6, b106 1.8) was 1.3. For the same compound, the serum creatinine ([4]; donepizil 10 mg daily continued for the next month, 5.5 on admission, hemodialysis discontinued) was 2.1, the “course after the drug was withdrawn or lapsed” value [5] was “progressive decline in their ability and strength over the next 7-10 days” and the “post void residuals (PVR's)” value ([6]; donepizil 5 mg orally daily with Detrol LA 2 mg orally daily) was “less than 100 cc”. The voiding trial ([6]; donepizil 5 mg orally daily, 24-48 hours or more before the trial) was “able to void without incident; also recorded: successful”, the “clinical outcome (pain, narcotic use)” value [7] was “able to eliminate their use of long acting; also recorded: decreased pain complaints in their neck; also recorded: controlled without the use of narcotics or NSAID's; also recorded: improvement in their back pain complaints; also recorded: pain complaints were significantly reduced over a four-week period; also recorded: no recurrence of their back pain or leg cramps; also recorded: no recurrence of cramps” and the side effects [7] was “no reported GI upset or diarrhea; also recorded: well tolerated; also recorded: no nausea or diarrhea”. For the same compound, the “clinical outcome (vascular edema, ulcers, pain, foot temperature)” value ([8]; donepizil 5 mg daily, 2 weeks to >1 year, single patients, listed as donepezil) was “the heel ulcer completely resolved”, the side effects [8] was “no diarrhea or ulcer symptoms; also recorded: No serious untoward side effects were noted; also recorded: able to tolerate this treatment for the next 6 months; also recorded: No deleterious side effects such a diarrhea or acid reflux were noted; also recorded: no diarrhea or symptoms of gastrointestinal reflux; also recorded: without any untoward side effects; also recorded: without deleterious side affects such a diarrhea or acid reflux; also recorded: absence of any adverse side effects” and the side effects ([8]; listed as donepezil) was “without nausea/vomiting or diarrhea symptoms”. The “clinical outcome (ulcers, edema, phantom discomfort)” value ([8]; donepizil increased to 10 mg daily, additional one month (a person)) was “near complete healing of the leg ulcers and complete resolution of their edema”.
